# Experimental data reported in patent US5439930A, “Biologically active n-acylprolydipeptides having antiamnestic, antihypoxic and anorexigenic effects” (Russian-American Institute for New Drug Development, priority 1992, dated 1995).
# Where a SMILES comes first, the peptide text is derived from it. The star is where a group is joined. Isovaleryl = CC(C)CC(=O)*; Hexanoyl = CCCCCC(=O)*; PhAc = O=C(Cc1ccccc1)*; Bz = O=C(c1ccccc1)*
# Key:
# Type in all cases: in vivo
# [1] = system: memory decline evoked by maximal electroshock (MES) in randomly bred male albino rats; assay: Passive avoidance step-through, amnesia by maximal electroshock (MES); conditions: for Latency (sec.) Amnesia + subst. / AA % (antiamnestic activity, Butler's modified formula) / inhibition in vivo at 0.1 mg/kg: 0.1 mg/kg i.p. 15 min before training; for Latency (sec.) Amnesia + subst.: MES after learning, retention 24 h later; for inhibition in vivo at 0.1 mg/kg: Rattus norvegicus, ip, 24 h, read-out: AA % (antiamnestic activity, Butler's modified formula)
# Protocol: (§1) Compounds according to the present invention, including the compounds described in Examples 1-11, were checked for their ability to prevent memory decline evoked by maximal electroshock (MES) or scopolamine in the passive avoidance step-through paradigm (equipment of Laffaette Co., USA). The experiments described herein (Examples 12, 13, 15, and 19) were carried out using randomly bred male albino rats of a weight of approximately 180-220 g. […] Amnesia was produced by transcorneal maximal electroshock immediately after learning or scopolamine (1 mg/kg, subcutaneously) administration 30 min. before learning. The retention was tested 24 hours later by the measurement of latency of the entering of the dark compartment.
# (§2) The degree of antiamnestic activity was estimated according to Buttler's modified formula: [formula]
# (§3) The higher the magnitude of this indicator the more is the antiamnestic activity.
# [2] = system: memory decline evoked by scopolamine in randomly bred male albino rats; assay: Passive avoidance step-through, amnesia by scopolamine
# Protocol: as §1, §2, §3
# [3] = system: phenazepam withdrawn male albino rats; assay: Threshold of aggressive behavior during phenazepam withdrawal; conditions: immediately after the last administration of phenazepam (2 mg/kg i.p. daily for 57 days)
# Protocol: The influence of Compound I on withdrawal syndrome caused by the interruption of chronic administration of benzodiazepine tranquilizer phenazepam (T. A. Voronina et al., In Fenazepam; A. V. Bogatsky, Ed.; Naukova dumka Publishers: Kiev, 1982; pp. 67-169) was studied in experiments on male albino rats weighing 190-200 g at the beginning and 300-350 g at the end of the experiment.
# Phenazepam (2 mg/kg intraperitoneally) or saline (control group of rats) were given once daily for 57 days. The withdrawal syndrome occurred 24-72 hours after the last injection. The withdrawal syndrome in rats consisted in "anxiogenic-like" state aggressiveness and accelerated development of kindled seizures caused by pentylentetrazol. Compound I was administered to the withdrawn rats in doses of 0.5 mg/kg intraperitoneally 15 minutes prior to testing.
# The threshold of the aggressive behavior was determined in the experiment on the rats (R. Tedeshi et al., J. Pharmacol. Exp. Ther., 125, 28-34 (1959)). The paired rats were placed on the electrified floor; the strength of the current, which provokes the fighting, was registered.
# [4] = system: undertraining of the passive avoidance reflex, rats; assay: Passive avoidance with undertraining, different regimes of administration; conditions: 200 mg/kg i.p.
# [5] = Level of active dose for the described nootropic activities; conditions: above-described nootropic activities
# Protocol: The compounds of the present invention were assessed for their ability to prevent memory impairment induced by maximal electroshock, or scopolamine administration. Unlike N-acylpyrrolidine compounds of the type described by Tanaka et al., supra, the compounds of the present invention are not believed to inhibit prolyl endopeptidase activity. […] The Compound I prevents mental decline, induced by frontal lobectomy (Example 15), prenatal alcoholization or prenatal hypoxia (Example 16) and aging (Example 17).
# In contrast to this, substances in accordance with the present invention exert their effects in a dose between about 0.1-0.5 mg/kg.
# [6] = 0.1 mg/kg 15 min before learning, scopolamine 1 mg/kg s.c.
# [7] = 0.1 mg/kg 15 min before learning, scopolamine 1 mg/kg s.c. 30 min before trial
# [8] = 200 mg/kg, scopolamine 1 mg/kg s.c.
smiles,measurement,setting,value
"NC(=O)CNC(=O)[C@@H]1CCCN1C(=O)Cc1ccccc1 [II, N-phenacetyl-L-prolylglycine amide] (PhAc-Pro-Gly-NH2)",Latency (sec.) Amnesia + subst.,[1],56 s
same,"AA % (antiamnestic activity, Butler's modified formula)",[1]; MES amnesia,27%
same,Aa (antiamnestic activity),[2]; [6],-9.0
same,Latency (sec.) Scopolamine + substance,[2]; [7],45.6 s
"CCOC(=O)CCNC(=O)[C@@H]1CCCN1C(=O)Cc1ccccc1 [III, N-phenacetyl-L-prolyl-β-alanine ethyl ester]",Latency (sec.) Amnesia + subst.,[1],56 s
same,"AA % (antiamnestic activity, Butler's modified formula)",[1]; MES amnesia,29%
same,Aa (antiamnestic activity),[2]; [6],23.7
same,Latency (sec.) Scopolamine + substance,[2]; [7],78.6 s
"NC(=O)CCNC(=O)[C@@H]1CCCN1C(=O)Cc1ccccc1 [IV, N-phenylacetyl-L-prolyl-β-alanine amide]",inhibition in vivo at 0.1 mg/kg,[1]; MES amnesia,52%
same,Aa (antiamnestic activity),[2]; [6],52.1
same,Latency (sec.) Scopolamine + substance,[2]; [7],94.9 s
"CCOC(=O)[C@@H](NC(=O)[C@@H]1CCCN1C(=O)Cc1ccccc1)C(C)C [IX, N-phenylacetyl-L-prolyl-L-valine ethyl ester] (PhAc-Pro-Val-OEt)",inhibition in vivo at 0.1 mg/kg,[1]; MES amnesia,0.0001%
"O=C1CN=C(c2ccccc2Cl)c2cc(Br)ccc2N1 [Phenazepam, reference compound]",Aggression Threshold (mA),[3],2.16 ± 0.2 mA
"NC(=O)CN1CCCC1=O [Piracetam, N-carbamido-methyl-pyrrolidone-2, reference compound]","Mnestic activity (Ma), administration 15 min. before retrieval",[4],-15%
same,"Mnestic activity (Ma), administration 15 min. before trial",[4],20.0%
same,"Mnestic activity (Ma), administration immediately after trial",[4],1.0%
same,AA % (antiamnestic activity),"[1]; 200 mg/kg, MES amnesia",30.5%
same,Level of active dose,[5],200 to 800 mg/kg
same,Aa (antiamnestic activity),[2]; [8],39.3
same,Latency (sec.) Scopolamine + substance,[2]; [8],64.2 s
"CCOC(=O)C[C@H](NC(=O)[C@@H]1CCCN1C(=O)Cc1ccccc1)C(=O)OCC [V, N-phenylacetyl-L-prolyl-L-aspartic acid diethyl ester] (PhAc-Pro-Asp(OEt)-OEt)",inhibition in vivo at 0.1 mg/kg,[1]; MES amnesia,29.5%
same,Aa (antiamnestic activity),[2]; [6],-10
same,Latency (sec.) Scopolamine + substance,[2]; [7],48.1 s
"NC(=O)C[C@H](NC(=O)[C@@H]1CCCN1C(=O)Cc1ccccc1)C(N)=O [VI, N-phenylacetyl-L-prolyl-L-asparagine amide] (PhAc-Pro-Asn-NH2)",inhibition in vivo at 0.1 mg/kg,[1]; MES amnesia,26%
same,Aa (antiamnestic activity),[2]; [6],-4.3
same,Latency (sec.) Scopolamine + substance,[2]; [7],46.3 s
"CCOC(=O)CNC(=O)[C@@H]1CCCN1C(=O)c1ccccc1 [VII, N-benzoyl-L-prolylglycine ethyl ester] (Bz-Pro-Gly-OEt)",inhibition in vivo at 0.1 mg/kg,[1]; MES amnesia,37%
"CCOC(=O)CNC(=O)[C@@H]1CCCN1C(=O)CC(C)C [VIII, N-isovaleryl-L-prolylglycine ethyl ester] (Isovaleryl-Pro-Gly-OEt)",inhibition in vivo at 0.1 mg/kg,[1]; MES amnesia,28%
"CCOC(=O)[C@@H](NC(=O)[C@@H]1CCCN1C(=O)c1ccccc1)C(C)C [X, N-benzoyl-L-prolyl-L-valine ethyl ester] (Bz-Pro-Val-OEt)",inhibition in vivo at 0.1 mg/kg,[1]; MES amnesia,38%
"CCOC(=O)CCNC(=O)[C@@H]1CCCN1C(=O)c1ccccc1 [XI, N-benzoyl-L-prolyl-β-alanine ethyl ester]",inhibition in vivo at 0.1 mg/kg,[1]; MES amnesia,21.9%
"NC(=O)CCNC(=O)[C@@H]1CCCN1C(=O)c1ccccc1 [XII, N-benzoyl-L-prolyl-β-alanine amide]",inhibition in vivo at 0.1 mg/kg,[1]; MES amnesia,15.2%
"NC(=O)CNC(=O)[C@@H]1CCCN1C(=O)c1ccccc1 [XIII, N-benzoyl-L-prolylglycine amide] (Bz-Pro-Gly-NH2)",inhibition in vivo at 0.1 mg/kg,[1]; MES amnesia,-17.6%
"CNC(=O)CNC(=O)[C@@H]1CCCN1C(=O)Cc1ccccc1 [XIV, N-phenylacetyl-L-prolylglycine N-methylamide] (PhAc-Pro-Gly-NHMe)",inhibition in vivo at 0.1 mg/kg,[1]; MES amnesia,-7.6%
"COC(=O)CCCNC(=O)[C@@H]1CCCN1C(=O)Cc1ccccc1 [XIX, N-phenylacetyl-L-prolyl-GABA methylester]",Latency (sec.) Amnesia + subst.,[1],95.8 s
same,"AA % (antiamnestic activity, Butler's modified formula)",[1]; MES amnesia,45.4%
"CN(C)C(=O)CNC(=O)[C@@H]1CCCN1C(=O)Cc1ccccc1 [XV, N-phenylacetyl-L-prolylglycine dimethylamide] (PhAc-Pro-Gly-NMe2)",inhibition in vivo at 0.1 mg/kg,[1]; MES amnesia,23%
"CCOC(=O)CC[C@H](NC(=O)[C@@H]1CCCN1C(=O)Cc1ccccc1)C(=O)OCC [XVI, N-phenylacetyl-L-prolyl-L-glutamic acid diethyl ester] (PhAc-Pro-Glu(OEt)-OEt)",inhibition in vivo at 0.1 mg/kg,[1]; MES amnesia,58.3%
"CC(C)C[C@H](NC(=O)[C@@H]1CCCN1C(=O)Cc1ccccc1)C(N)=O [XVII, N-phenylacetyl-L-prolyl-L-leucine amide] (PhAc-Pro-Leu-NH2)",inhibition in vivo at 0.1 mg/kg,[1]; MES amnesia,7.9%
"O=C(O)CNC(=O)[C@@H]1CCCN1C(=O)Cc1ccccc1 [XVIII, N-phenylacetyl-L-prolylglycine] (PhAc-Pro-Gly-OH)",inhibition in vivo at 0.1 mg/kg,[1]; MES amnesia,9.8%
"CCOC(=O)[C@H](C)NC(=O)[C@@H]1CCCN1C(=O)Cc1ccccc1 [XX, N-phenylacetyl-L-prolyl-L-alanine ethyl ester] (PhAc-Pro-Ala-OEt)",inhibition in vivo at 0.1 mg/kg,[1]; MES amnesia,10.8%
"CCCCCC(=O)N1CCC[C@H]1C(=O)NCC(=O)OCC [XXI, N-caproyl-L-prolylglycine ethyl ester] (Hexanoyl-Pro-Gly-OEt)",inhibition in vivo at 0.1 mg/kg,[1]; MES amnesia,20.2%
"CCOC(=O)CNC(=O)[C@@H]1CCCN1CCCCc1ccccc1 [XXIII, N-phenylbutyl-L-prolyl-glycine ethylester]",inhibition in vivo at 0.1 mg/kg,[1]; MES amnesia,12.6%
